{
  "source": "PubChem BioAssay (NCI)",
  "assay_in_all_cases": "NCI tumour cell line growth inhibition, 48 h",
  "key": {"[1]": {"system": "IGROV1 ovarian"}, "[2]": {"system": "OVCAR-4 ovarian"}, "[3]": {"system": "CAKI-1 renal"}, "[4]": {"system": "A498 renal"}, "[5]": {"system": "HCC-2998 colon"}, "[6]": {"system": "UACC-257 melanoma"}, "[7]": {"system": "NCI-H460 lung"}, "[8]": {"system": "SNB-19 CNS"}, "[9]": {"system": "HT29 colon"}, "[10]": {"system": "SF-268 CNS"}, "[11]": {"system": "SNB-75 CNS"}, "[12]": {"system": "786-0 renal"}, "[13]": {"system": "MALME-3M melanoma"}, "[14]": {"system": "K-562 leukemia"}, "[15]": {"system": "COLO 205 colon"}, "[16]": {"system": "OVCAR-8 ovarian"}, "[17]": {"system": "MOLT-4 leukemia"}, "[18]": {"system": "EKVX NSCLC"}, "[19]": {"system": "UO-31 renal"}, "[20]": {"system": "NCI-H522 lung"}, "[21]": {"system": "SK-OV-3 ovarian"}, "[22]": {"system": "HCT-15 colon"}, "[23]": {"system": "HOP-18 NSCLC"}, "[24]": {"system": "KM20L2 colon"}, "[25]": {"system": "TK-10 renal"}, "[26]": {"system": "SN12C renal"}, "[27]": {"system": "M14 melanoma"}, "[28]": {"system": "UACC-62 melanoma"}, "[29]": {"system": "HOP-92 NSCLC"}, "[30]": {"system": "SNB-78 CNS"}, "[31]": {"system": "U251 CNS"}, "[32]": {"system": "KM12 colon"}, "[33]": {"system": "OVCAR-3 ovarian"}, "[34]": {"system": "CCRF-CEM leukemia"}, "[35]": {"system": "NCI-H23 lung"}, "[36]": {"system": "SK-MEL-5 melanoma"}, "[37]": {"system": "LXFL 529 NSCLC"}, "[38]": {"system": "M19-MEL melanoma"}, "[39]": {"system": "LOX IMVI melanoma"}, "[40]": {"system": "SR leukemia"}, "[41]": {"system": "SK-MEL-2 melanoma"}, "[42]": {"system": "ACHN renal"}, "[43]": {"system": "HCT-116 colon"}, "[44]": {"system": "HOP-62 NSCLC"}, "[45]": {"system": "RXF-631 renal"}, "[46]": {"system": "A549 NSCLC"}, "[47]": {"system": "SK-MEL-28 melanoma"}, "[48]": {"system": "DLD-1 colon"}, "[49]": {"system": "OVCAR-5 ovarian"}, "[50]": {"system": "RXF 393 renal"}, "[51]": {"system": "SW-620 colon"}, "[52]": {"system": "DMS 273 small cell lung"}, "[53]": {"system": "NCI-H226 lung"}, "[54]": {"system": "SF-295 CNS"}, "[55]": {"system": "RPMI-8226 leukemia"}},
  "note": "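Growth conditions: 96-well plates. Treatment: test compound, 48 hours, 5 concentrations. Analysis: linear interpolation between bracketing concentrations; unreached endpoints set to highest concentration. Definition used: TGI = concentration required for complete inhibition of growth.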",
  "data": [
    {"molecule": "Cc1ccc(S(=O)(=O)OCCOCCOCCOCCOCCOS(=O)(=O)c2ccc(C)cc2)cc1", "values": [
      {"measurement": "TGI", "setting": "[1]", "result": "> 100", "unit": "µM"},
      {"measurement": "TGI", "setting": "[2]", "result": "> 100", "unit": "µM"},
      {"measurement": "TGI", "setting": "[3]", "result": "> 100", "unit": "µM"},
      {"measurement": "TGI", "setting": "[4]", "result": "> 100", "unit": "µM"},
      {"measurement": "TGI", "setting": "[5]", "result": "> 100", "unit": "µM"},
      {"measurement": "TGI", "setting": "[6]", "result": 77.8, "unit": "µM"},
      {"measurement": "TGI", "setting": "[7]", "result": "> 100", "unit": "µM"},
      {"measurement": "TGI", "setting": "[8]", "result": "> 100", "unit": "µM"},
      {"measurement": "TGI", "setting": "[9]", "result": "> 100", "unit": "µM"},
      {"measurement": "TGI", "setting": "[10]", "result": "> 100", "unit": "µM"},
      {"measurement": "TGI", "setting": "[11]", "result": "> 100", "unit": "µM"},
      {"measurement": "TGI", "setting": "[12]", "result": "> 100", "unit": "µM"},
      {"measurement": "TGI", "setting": "[13]", "result": "> 100", "unit": "µM"},
      {"measurement": "TGI", "setting": "[14]", "result": "> 100", "unit": "µM"},
      {"measurement": "TGI", "setting": "[15]", "result": 34.8, "unit": "µM"},
      {"measurement": "TGI", "setting": "[16]", "result": 88, "unit": "µM"},
      {"measurement": "TGI", "setting": "[17]", "result": 41.4, "unit": "µM"},
      {"measurement": "TGI", "setting": "[18]", "result": "> 100", "unit": "µM"},
      {"measurement": "TGI", "setting": "[19]", "result": "> 100", "unit": "µM"},
      {"measurement": "TGI", "setting": "[20]", "result": "> 100", "unit": "µM"},
      {"measurement": "TGI", "setting": "[21]", "result": "> 100", "unit": "µM"},
      {"measurement": "TGI", "setting": "[22]", "result": "> 100", "unit": "µM"},
      {"measurement": "TGI", "setting": "[23]", "result": "> 100", "unit": "µM"},
      {"measurement": "TGI", "setting": "[24]", "result": "> 100", "unit": "µM"},
      {"measurement": "TGI", "setting": "[25]", "result": "> 100", "unit": "µM"},
      {"measurement": "TGI", "setting": "[26]", "result": "> 100", "unit": "µM"},
      {"measurement": "TGI", "setting": "[27]", "result": "> 100", "unit": "µM"},
      {"measurement": "TGI", "setting": "[28]", "result": "> 100", "unit": "µM"},
      {"measurement": "TGI", "setting": "[29]", "result": 99.3, "unit": "µM"},
      {"measurement": "TGI", "setting": "[30]", "result": "> 100", "unit": "µM"},
      {"measurement": "TGI", "setting": "[31]", "result": "> 100", "unit": "µM"},
      {"measurement": "TGI", "setting": "[32]", "result": "> 100", "unit": "µM"},
      {"measurement": "TGI", "setting": "[33]", "result": "> 100", "unit": "µM"},
      {"measurement": "TGI", "setting": "[34]", "result": 66.4, "unit": "µM"},
      {"measurement": "TGI", "setting": "[35]", "result": "> 100", "unit": "µM"},
      {"measurement": "TGI", "setting": "[36]", "result": 65, "unit": "µM"},
      {"measurement": "TGI", "setting": "[37]", "result": "> 100", "unit": "µM"},
      {"measurement": "TGI", "setting": "[38]", "result": "> 100", "unit": "µM"},
      {"measurement": "TGI", "setting": "[39]", "result": "> 100", "unit": "µM"},
      {"measurement": "TGI", "setting": "[40]", "result": 90.9, "unit": "µM"},
      {"measurement": "TGI", "setting": "[41]", "result": "> 100", "unit": "µM"},
      {"measurement": "TGI", "setting": "[42]", "result": "> 100", "unit": "µM"},
      {"measurement": "TGI", "setting": "[43]", "result": "> 100", "unit": "µM"},
      {"measurement": "TGI", "setting": "[44]", "result": "> 100", "unit": "µM"},
      {"measurement": "TGI", "setting": "[45]", "result": 82.2, "unit": "µM"},
      {"measurement": "TGI", "setting": "[46]", "result": "> 100", "unit": "µM"},
      {"measurement": "TGI", "setting": "[47]", "result": "> 100", "unit": "µM"},
      {"measurement": "TGI", "setting": "[48]", "result": "> 100", "unit": "µM"},
      {"measurement": "TGI", "setting": "[49]", "result": "> 100", "unit": "µM"},
      {"measurement": "TGI", "setting": "[50]", "result": "> 100", "unit": "µM"},
      {"measurement": "TGI", "setting": "[51]", "result": "> 100", "unit": "µM"},
      {"measurement": "TGI", "setting": "[52]", "result": "> 100", "unit": "µM"},
      {"measurement": "TGI", "setting": "[53]", "result": "> 100", "unit": "µM"},
      {"measurement": "TGI", "setting": "[54]", "result": "> 100", "unit": "µM"},
      {"measurement": "TGI", "setting": "[55]", "result": 92.7, "unit": "µM"}
    ]}
  ]
}
